{"source": "patent US20130071521A1", "about": "“REBAUDIOSIDE D SWEETENERS AND FOOD PRODUCTS SWEETENED WITH REBAUDIOSIDE D” (PEPSICO, INC., priority 2007, published 2013)", "key": {"[1]": {"settings": "cited from earlier work; for potency, times as sweet as sugar: commonly accepted potency figures"}, "[2]": {"settings": "Kinghorn (2002) page 138, cited from earlier work; for relative quality of taste, as compared to stevioside: stevioside is rated 0"}, "[3]": {"system": "sensory panel of twelve testers", "experiment": "Sensory panel evaluation of initial sweetness characteristics of sweeteners in water (Example 1)", "type": "in vivo", "settings": "for initial sweetness perception: FIG. 2/FIG. 4; for initial bitterness perception: FIG. 3/FIG. 5", "experimental": "Sensory evaluations of different sweeteners at various concentrations were performed to provide comparative analysis of organoleptic characteristics of aqueous solutions of rebaudioside D, versus other sweeteners. The rebaudioside D was a stevia extract having a purity of at least 93% by weight rebaudioside D (Reb D). Initial sweetness characteristics of three concentrations of such Reb D in water were determined by a sensory panel of twelve testers. Sensory panels are well known to those of skill in the art, and comprise testers trained to evaluate the organoleptic attributes of comestibles. Typically, sensory panelists have been screened for their taste acuity and extensively trained in the use of standardized vocabulary to describe the appearance, aroma, flavor, mouthfeel and aftertaste of a wide variety of products, as well as scaling techniques to quantify the attributes. The numerical data generated by the sensory panel testers were then analyzed for their statistical significance.\nThe water employed in the tests of Example 1 comprised purified water as described in detail above, and having a pH of 7.0. The initial sweetness characteristics of 1200 parts per million (ppm) Reb D in water were compared to the initial sweetness characteristics of aqueous solutions of each of 1200 ppm rebaudioside A (Reb A), sucrose, aspartame and sucralose. The rebaudioside A was a stevia extract comprising a purity of 95% by weight rebaudioside A (PureCircle USA Inc., Oak Brook, Ill.). The specific attributes tested by the sensory panel comprised sweetness, thickness, astringency, bitterness, numbing, cooling and licorice.\nThe initial sweetness characteristics of other concentrations of rebaudioside D in water were also tested and compared to the same concentrations of rebaudioside A in water. […] FIGS. 2 through 5 illustrate the differences in the characteristics of sweetness and bitterness attributes between Reb D and Reb A."}, "[4]": {"system": "sensory panel of twelve testers", "experiment": "Sensory panel evaluation in water, noncarbonated beverage base and carbonated beverage base (Example 2)", "type": "in vivo", "design": "Sweetness / Bitterness: scale not given here", "settings": "for interaction between the sweetener and the three beverage bases (initial sweetness attribute plots): water, noncarbonated and carbonated beverage base", "experimental": "Potential beverage base effects on the initial sweetness perception of rebaudioside D were investigated by performing tests of three concentrations of rebaudioside D (Reb D) in water, in a noncarbonated beverage base, and in a carbonated beverage base, by a sensory panel of twelve testers. The numerical data generated by the sensory panel testers were then analyzed for their statistical significance.\nThe water employed for the tests of this Example comprised the characteristics as described in Example 1. The noncarbonated beverage base comprised purified water, and citric acid in an amount sufficient to decrease the pH of the noncarbonated beverage base to 3.1. The carbonated beverage base comprised purified water, carbon dioxide, and citric acid in an amount sufficient to decrease the pH of the noncarbonated beverage base to about 3.1. The initial sweetness characteristics of 606 parts per million (ppm) Reb D in water were compared to the initial sweetness characteristics of 606 ppm Reb D in noncarbonated beverage base and 606 ppm Reb D in carbonated beverage base.\nThe specific attributes tested by the sensory panel comprised sweetness, thickness, astringency, bitterness, numbing, cooling, licorice, burn/tingle and mouthcoat."}, "[5]": {"settings": "360 ppm (sucrose 5.4 brix), FIGS. 16-18"}, "[6]": {"settings": "606 ppm (sucrose 8.5 brix), FIGS. 13-15"}, "[7]": {"settings": "CSD (carbonated beverage base), 360 ppm"}, "[8]": {"settings": "CSD (carbonated beverage base), 606 ppm"}, "[9]": {"settings": "High Level, 1200 ppm, averaged across all three beverage bases"}, "[10]": {"settings": "Low-Medium Level, 360 ppm, averaged across all three beverage bases"}, "[11]": {"settings": "Medium Level, 606 ppm, averaged across all three beverage bases"}, "[12]": {"settings": "NCB (noncarbonated beverage base), 360 ppm"}, "[13]": {"settings": "NCB (noncarbonated beverage base), 606 ppm"}}, "note": "Where a SMILES comes first, the peptide text is derived from it.", "data": [{"smiles": "COc1ccc(CCC(=O)c2c(O)cc(O[C@@H]3O[C@H](CO)[C@@H](O)[C@H](O)[C@H]3O[C@@H]3O[C@@H](C)[C@H](O)[C@@H](O)[C@H]3O)cc2O)cc1O", "note": "[Neohesperidin dihydrochalcone]", "values": [{"measurement": "potency, times as sweet as sugar", "setting": "[1]", "value": 300, "unit": "times as sweet as sugar"}]}, {"smiles": "COC(=O)[C@H](Cc1ccccc1)NC(=O)[C@H](CC(=O)O)NCCC(C)(C)C", "note": "[Neotame]", "values": [{"measurement": "potency, times as sweet as sugar", "setting": "[1]", "value": "8,000 times as sweet as sugar"}]}, {"smiles": "CC1=CC(=O)NS(=O)(=O)O1", "note": "[Acesulfame-K]", "values": [{"measurement": "potency, times as sweet as sugar", "setting": "[1]", "value": 200, "unit": "times as sweet as sugar"}]}, {"smiles": "O=C1NS(=O)(=O)c2ccccc21", "note": "[Saccharin]", "values": [{"measurement": "potency, times as sweet as sugar", "setting": "[1]", "value": 300, "unit": "times as sweet as sugar"}]}, {"smiles": "C=C1C[C@@]23CC[C@H]4[C@@](C)(CCC[C@@]4(C)C(=O)O[C@@H]4O[C@H](CO)[C@@H](O)[C@H](O)[C@H]4O)[C@@H]2CC[C@]1(O[C@@H]1O[C@H](CO)[C@@H](O)[C@H](O)[C@H]1O[C@@H]1O[C@H](CO)[C@@H](O)[C@H](O)[C@H]1O)C3", "note": "[stevioside]", "values": [{"measurement": "potency, times as sweet as sugar", "setting": "[1]", "value": "100-250 times as sweet as sugar"}, {"measurement": "relative quality of taste, as compared to stevioside", "setting": "[2]", "value": 0}]}, {"smiles": "C[C@H](CC[C@@H](O[C@@H]1O[C@H](CO[C@@H]2O[C@H](CO)[C@@H](O)[C@H](O)[C@H]2O)[C@@H](O)[C@H](O)[C@H]1O[C@@H]1O[C@H](CO)[C@@H](O)[C@H](O)[C@H]1O)C(C)(C)O)[C@H]1CC[C@@]2(C)[C@@H]3CC=C4[C@@H](CC[C@H](O[C@@H]5O[C@H](CO[C@@H]6O[C@H](CO)[C@@H](O)[C@H](O)[C@H]6O)[C@@H](O)[C@H](O)[C@H]5O)C4(C)C)[C@]3(C)[C@H](O)C[C@]12C", "note": "[Mogroside V]", "values": [{"measurement": "potency, times as sweet as sugar", "setting": "[1]", "value": "100-300 times as sweet as sugar"}]}, {"smiles": "OC[C@H]1O[C@H](O[C@]2(CCl)O[C@H](CCl)[C@@H](O)[C@@H]2O)[C@H](O)[C@@H](O)[C@H]1Cl", "note": "[Sucralose]", "values": [{"measurement": "potency, times as sweet as sugar", "setting": "[1]", "value": 600, "unit": "times as sweet as sugar"}]}, {"smiles": "C=C1C[C@@]23CC[C@H]4[C@@](C)(CCC[C@@]4(C)C(=O)O[C@@H]4O[C@H](CO)[C@@H](O)[C@H](O)[C@H]4O)[C@@H]2CC[C@]1(O[C@@H]1O[C@H](CO)[C@@H](O)[C@H](O[C@@H]2O[C@H](CO)[C@@H](O)[C@H](O)[C@H]2O)[C@H]1O[C@@H]1O[C@H](CO)[C@@H](O)[C@H](O)[C@H]1O)C3", "note": "[Reb A, rebaudioside A, reference compound]", "values": [{"measurement": "sweetness relative to sucrose", "setting": "[1]; background statement", "value": "approximately 200 times sweeter than sucrose"}, {"measurement": "potency, times as sweet as sugar", "setting": "[1]", "value": "150-200 times as sweet as sugar"}, {"measurement": "initial sweetness perception", "setting": "[3]; 360 ppm in water", "value": "about 60"}, {"measurement": "initial bitterness perception", "setting": "[3]; 360 ppm in water", "value": "about 38"}, {"measurement": "initial sweetness perception", "setting": "[3]; 1200 ppm in water", "value": "about 68"}, {"measurement": "initial bitterness perception", "setting": "[3]; 1200 ppm in water", "value": "about 85"}, {"measurement": "sweetness (value reported by Kinghorn)", "setting": "[2]", "value": 242}, {"measurement": "relative quality of taste, as compared to stevioside", "setting": "[2]", "value": "+2"}, {"measurement": "interaction between the sweetener and the three beverage bases (initial sweetness attribute plots)", "setting": "[4]; [5]", "value": "no significant interaction"}, {"measurement": "interaction between the sweetener and the three beverage bases (initial sweetness attribute plots)", "setting": "[4]; [6]", "value": "no significant interaction"}, {"measurement": "Bitterness", "setting": "[4]; [7]", "value": 20.5}, {"measurement": "Sweetness", "setting": "[4]; [7]", "value": 50.7}, {"measurement": "Bitterness", "setting": "[4]; [8]", "value": 28.2}, {"measurement": "Sweetness", "setting": "[4]; [8]", "value": 66.0}, {"measurement": "Bitterness", "setting": "[4]; [9]", "value": 45.1}, {"measurement": "Sweetness", "setting": "[4]; [9]", "value": 70.6}, {"measurement": "Bitterness", "setting": "[4]; [10]", "value": 21.0}, {"measurement": "Sweetness", "setting": "[4]; [10]", "value": 52.6}, {"measurement": "Bitterness", "setting": "[4]; [11]", "value": 33.4}, {"measurement": "Sweetness", "setting": "[4]; [11]", "value": 63.5}, {"measurement": "Bitterness", "setting": "[4]; [12]", "value": 24.4}, {"measurement": "Sweetness", "setting": "[4]; [12]", "value": 52.3}, {"measurement": "Bitterness", "setting": "[4]; [13]", "value": 29.8}, {"measurement": "Sweetness", "setting": "[4]; [13]", "value": 68.5}, {"measurement": "Bitterness", "setting": "[4]; Water, 360 ppm", "value": 21.0}, {"measurement": "Sweetness", "setting": "[4]; Water, 360 ppm", "value": 52.6}, {"measurement": "Bitterness", "setting": "[4]; Water, 606 ppm", "value": 33.4}, {"measurement": "Sweetness", "setting": "[4]; Water, 606 ppm", "value": 63.5}]}, {"smiles": "OC[C@H]1O[C@@](CO)(O[C@H]2O[C@H](CO)[C@@H](O)[C@H](O)[C@H]2O)[C@@H](O)[C@@H]1O", "note": "[sucrose, reference compound]", "values": [{"measurement": "interaction between the sweetener and the three beverage bases (initial sweetness attribute plots)", "setting": "[4]; [5]", "value": "no significant interaction"}, {"measurement": "interaction between the sweetener and the three beverage bases (initial sweetness attribute plots)", "setting": "[4]; [6]", "value": "no significant interaction"}]}, {"smiles": "COC(=O)[C@H](Cc1ccccc1)NC(=O)[C@@H](N)CC(=O)O", "note": "[Aspertame] (HELM PEPTIDE1{D.F.[CO[*:1]]}$$$$V2.0)", "values": [{"measurement": "potency, times as sweet as sugar", "setting": "[1]", "value": 200, "unit": "times as sweet as sugar"}]}]}
